This note sets out measurements from US20250223618A1, “METHOD FOR PRODUCING MULTI-HYDROXY DERIVATIVES OF POLYUNSATURATED FATTY ACIDS” (KOREA RESEARCH INSTITUTE OF BIOSCIENCE AND BIOTECHNOLOGY, priority 2018, published 2025).

Where a chain is given by its changes, count along the chain named. Names may count otherwise.

Data set [1] has as its target Protein having amino acid sequence of SEQ ID NO: 1 (protein K9V_A296G; enzyme for producing di-hydroxy derivative of polyunsaturated fatty acids) (Phormidium nigroviride, UniProt K9VMV7, A296G). The note with it: pH 8.0, 20° C. As to the method: At this time, 50 mM of a sodium phosphate buffer in the case of pH 7.0, 50 mM of a Tris-HCl buffer in the case of pH 8.0, and 50 mM of a sodium borate buffer in the case of pH 9.0 to pH 11.0 were used, respectively.

In data set [2] the target is T1, Protein having amino acid sequence of SEQ ID NO: 2 (protein K9V; enzyme for producing tri-hydroxy or tetra-hydroxy derivative of polyunsaturated fatty acids) (Phormidium nigroviride, UniProt K9VMV7).
T1 construct: Ni-NTA purified
T1 sequence (K9VMV7 1-571): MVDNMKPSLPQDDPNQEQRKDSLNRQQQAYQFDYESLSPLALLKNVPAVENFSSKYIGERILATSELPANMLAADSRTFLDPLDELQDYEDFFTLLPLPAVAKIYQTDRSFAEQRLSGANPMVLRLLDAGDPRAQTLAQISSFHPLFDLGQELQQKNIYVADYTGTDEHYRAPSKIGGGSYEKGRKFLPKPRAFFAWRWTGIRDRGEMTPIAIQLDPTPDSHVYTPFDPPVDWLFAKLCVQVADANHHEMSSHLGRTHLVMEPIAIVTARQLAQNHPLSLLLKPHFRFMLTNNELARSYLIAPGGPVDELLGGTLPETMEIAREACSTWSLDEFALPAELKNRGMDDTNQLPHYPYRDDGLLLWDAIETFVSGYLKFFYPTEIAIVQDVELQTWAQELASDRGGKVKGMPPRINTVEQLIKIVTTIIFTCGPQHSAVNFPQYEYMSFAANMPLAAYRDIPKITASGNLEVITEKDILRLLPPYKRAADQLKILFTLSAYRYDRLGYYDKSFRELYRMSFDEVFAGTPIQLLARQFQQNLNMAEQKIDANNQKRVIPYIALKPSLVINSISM
In words: Reaction rate (Km, Kcat) under optimal conditions, protein of SEQ ID NO: 2. Format: biochemical. The note with it: pH 7.0, 30° C.
Text: Under optimal conditions confirmed in [4-1] and [4-2] above, Km and Kcat values of the protein having the amino acid sequence of SEQ ID NO: 1 and the protein having the amino acid sequence of SEQ ID NO: 2 were examined.

Data set [3] concerns mammospheres of the human beast cancer-derived cancer stem cells. Description: Proliferation of mammospheres of breast cancer-derived cancer stem cells. In kind it is cell-based. The settings on record: treated at the concentration of 0 to 60 μM; FIG. 10A/10B. As to the method: (§1) The purified derivatives were treated to human beast cancer cells and human beast cancer-derived cancer stem cells and then the effects thereof were confirmed.
The human breast cancer cells MDA-MB-231 were incubated at a density of 0.5 to 1×10^4 cells in a ultra-low attachment 6-well plate containing 2 ml of a Complete MammoCult™ medium (StemCell Technologies, Canada) added with 4 μg/ml of heparin, 0.48 μg/ml of hydrocortisone, 100 U/ml of penicillin, and 100 μg/ml of streptomycin (carbon dioxide 5%, 37° C.) to form mammospheres of the human beast cancer-derived cancer stem cells.

The test system of data set [4] is human breast cancer cells MDA-MB-231. Description: Proliferation of human breast cancer cells. In kind it is cell-based. The settings on record: same concentration as in mammospheres (0 to 60 μM), FIG. 10A. On the procedure: as §1
More specifically, first, human breast cancer cells MDA-MB-231 (ATCC) were incubated at a density of 1×10^6 cells in a 10 cm culture dish with a DMEM medium added with 10% fetal bovine serum (FBS, Hyclone), 100 U/ml penicillin, and 100 μg/ml of streptomycin (carbon dioxide 5%, 37° C.).

Data set [5] in a line: Effect of pH on enzyme activity (13S-hydroxy-octadecadienoic acid formed). In kind it is biochemical. The note with it: 10 KU/ml protein, 100 μM linoleic acid, 30 minutes. On the procedure: (§2) In the same manner as in Example [3-1], the concentration of 13S-hydroxy-octadecadienoic acid in the reaction product was measured, and relative values thereof were compared with each other.

Data set [6] is described as follows: Effect of temperature on enzyme activity (13S-hydroxy-octadecadienoic acid formed). Format: biochemical. The settings on record: 100 μM linoleic acid, pH 7, 20° C. to 50° C., 30 minutes. On the procedure: as §2

Chain of Protein having amino acid sequence of SEQ ID NO: 1 (protein K9V_A296G; enzyme for producing di-hydroxy derivative of polyunsaturated fatty acids) (K9VMV7 entry or part of it A296G): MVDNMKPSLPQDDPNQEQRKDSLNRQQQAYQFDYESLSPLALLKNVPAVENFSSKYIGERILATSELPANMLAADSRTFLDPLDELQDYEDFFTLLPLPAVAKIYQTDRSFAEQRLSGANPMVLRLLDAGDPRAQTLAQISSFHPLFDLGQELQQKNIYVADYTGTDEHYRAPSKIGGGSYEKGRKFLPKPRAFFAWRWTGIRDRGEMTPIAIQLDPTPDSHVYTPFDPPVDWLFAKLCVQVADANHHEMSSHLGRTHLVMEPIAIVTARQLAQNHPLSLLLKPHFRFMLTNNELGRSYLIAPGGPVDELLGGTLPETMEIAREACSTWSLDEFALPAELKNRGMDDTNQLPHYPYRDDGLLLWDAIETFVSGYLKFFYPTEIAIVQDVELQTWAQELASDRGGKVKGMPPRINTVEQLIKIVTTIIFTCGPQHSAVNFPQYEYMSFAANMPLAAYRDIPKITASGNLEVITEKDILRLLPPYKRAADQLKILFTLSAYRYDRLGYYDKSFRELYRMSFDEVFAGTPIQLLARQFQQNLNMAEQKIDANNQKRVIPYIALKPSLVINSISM

What is called Km is the concentration of substrate that gives half-maximal velocity. On to `CCCCC/C=C\C/C=C\CCCCCCCC(=O)O` [linoleic acid], for which the Kcat in data set [1] was found to be 0.392 ± 0.0167 s⁻¹; in data set [2] it was 0.0067 ± 0.00033 s⁻¹. For the same molecule, the Km in data set [1] stood at 46.8 ± 1 µM; in data set [2], 79.4 ± 0.8 µM.
With `CCC(O)/C=C/C=C/C=C/C(O)C/C=C/C/C=C/C/C=C/CCC(=O)O` (stereo not shown) [di-hydroxy derivative], in data set [3], the “proliferation of the mammospheres of the beast cancer-derived cancer stem cells” value was “inhibited”. The “proliferation of the breast cancer cells” value in data set [4] was “no effect”.

B1: Protein having amino acid sequence of SEQ ID NO: 1: enzyme for producing a di-hydroxy derivative of polyunsaturated fatty acids, about 65 KDa, expressed in E. coli (protein)
chain: T1 sequence (K9VMV7 1-571) with A296G
modifications: K9V_A296G
notes: enzyme for producing a di-hydroxy derivative of polyunsaturated fatty acids, about 65 KDa, expressed in E. coli
B1: the “pH of better (optimal) enzyme activity” value in data set [5] (pH 7 to pH 11, 25° C., FIG. 8A) was roughly 8.0. For the same molecule, the “temperature of better (optimal) enzyme activity” value in data set [6] (50 KU/ml protein, FIG. 9A) is roughly 20 °C.

B2: Protein having amino acid sequence of SEQ ID NO: 2: enzyme for producing a tri-hydroxy or tetra-hydroxy derivative of polyunsaturated fatty acids, about 65 KDa, expressed in E. coli (protein)
chain: T1 sequence (K9VMV7 1-571)
modifications: enzyme (K9V)
notes: enzyme for producing a tri-hydroxy or tetra-hydroxy derivative of polyunsaturated fatty acids, about 65 KDa, expressed in E. coli
For B2, the “pH of better (optimal) enzyme activity” value in data set [5] (pH 6 to pH 11, 25° C., FIG. 8B) is reported as roughly 8.0. Moreover, the “temperature of better (optimal) enzyme activity” value in data set [6] (10 KU/ml protein, FIG. 9B) was roughly 30 °C.
